# Reference: paper PMC4115230, “Lipid–Protein Nanodiscs Offer New Perspectives for Structural and Functional Studies of Water-Soluble Membrane-Active Peptides” (Acta Naturae, 2014)
# “Also recorded” adds a separate entry of the source. Where no end group is shown, it is not given here.
# Tests used:
# [1] = tested on: nanodisc surface or MSP molecule; assay: Langmuir analysis of VSTx1 binding to sites on nanodisc surface or MSP; conditions: Langmuir isotherm (eq. 2); range over LPN/POPC, LPN/POPC/DOPG and MSP
# Experimental: (§1) To measure the isotherms of the toxins binding to LPNs and MSP molecules, the VSTx1 and NT II samples ([…], 10 mM Tris-Ac, pH 7.0) were titrated with solutions of nanodiscs (70 μM) of various lipid compositions or with a MSP solution (0.7 mM). The 1D 1H-NMR spectrum was acquired at each point. A data analysis was performed assuming that the intensity of the observed NMR signals of a peptide is proportional to its equilibrium concentration in solution ([P]free). The binding curves were fitted either to the partition equilibrium equation (1) or to the Langmuir isotherm equation (2), taking into account the dilution of the initial samples upon titration:
# (§2) where [LPN/lipid] is the LPN concentration (assuming that one nanodisc contains two MSP molecules) or the lipid concentration (assuming that one nanodisc contains 150 lipid molecules), [P]boundis the concentration of a peptide bound to LPN ([P]0 = [P]free+ [P]bound), Kpis the partition coefficient, n is the number of binding sites for a peptide on the nanodisc surface, and Knis the affinity constant of the peptide to the binding site on the nanodisc surface.
# LPN/POPC/DOPG (3 : 1) = assay: NMR titration binding isotherm with LPN/POPC/DOPG (3 : 1) nanodiscs
# Experimental: (§3) The recombinant 44–243 fragment of the human apolipoprotein A1 with a N-terminal sequence of six His residues was used as an MSP protein. The purified MSP protein, obtained as described in [20], was mixed at a molar ratio of 1 : 75 with lipids in the presence of a detergent, sodium cholate (2 : 1 cholate/lipids molar ratio), and the mixture was incubated at 4 °C for 3 h. When using saturated lipids (DLPC, DLPG), the reaction temperature was kept not lower than 25 °C. Spontaneous LPN assembly was initiated by detergent sorption to the Bio-Beads™ resin (Bio-Rad, USA) for 1.5 h. Purification of the nanodiscs was performed on a Ni^2+ Sepharose 6 Fast Flow resin (GE Healthcare, USA) equilibrated with buffer A (20 mM Tris-HCl, 0.5 M NaCl, 1 mM NaN3, pH 8.0). After loading the reaction mixture, the resin was washed with a fivefold volume of buffer A. LPNs were eluted with buffer A containing 100 mM imidazole. The MSP concentration was determined spectrophotometrically by absorbance at λ = 280 nm. The LPN concentration was determined by assuming that each nanodisc contained two MSP molecules.
# (§4) NMR spectra were acquired at 40–45 °C on AVANCE -700 and AVANCE -III-800 spectrometers (Bruker, Germany) equipped with cryogenically cooled triple-resonance probes at the proton resonance frequencies of 700 and 800 MHz, respectively.
# as §1, §2
# [2] = buffer containing 150 mM KCl; ref [3]; cited from earlier work
# Text: These differences in the toxin affinity may b ...
# [3] = tested on: MSP (44-243 fragment of human apolipoprotein A1); assay: NMR titration binding isotherm with MSP
# Experimental: as §3, §4, §1, §2
# LPNs [4] = assay: Gel filtration analysis of LPNs after peptide addition (nanodisc integrity, particle size); format: physicochemical; conditions: for nanodisc disruption: 1 mM EDTA, pH 7.4, 280 nm
# Experimental: was carried out on a Superdex-200 resin using a Tricorn 5/200 column (GE Healthcare, Sweden) in buffer (10 mM Tris-HCl, 0.1 M NaCl, 1 mM EDTA, 1 mM NaN3, pH 7.4). Thyroglobulin (669 kDa, Stokes radius RH = 8.5 nm), ferritin (440 kDa, RH = 6.1 nm), catalase (232 kDa, RH = 5.22 nm), aldolase (158 kDa, RH = 4.81 nm) BSA (67 kDa, RH = 3.55 nm), and ovalbumin (43 kDa, RH = 3.05 nm) were used as calibration proteins. The flow rate through the column was 0.3 ml/min. Detection was performed at 280 nm. The particle size was determined from the elution volume vs the lgRH calibration curve. All the particle size (diameter) values provided below correspond to twice RH values. ;
# LPN/POPC = assay: NMR titration binding isotherm with LPN/POPC nanodiscs
# Experimental: as §3, §4, §1, §2
# K^+ channels = conditions: ref [3]; cited from earlier work
# Text: (§5) The VSTx1 toxin is a small β-structured peptide stabilized by three disulfide bonds which form a “cysteine knot” (Fig. 1). […] According to current data, VSTx1 inhibits the voltage-dependent activation of K^+ channels and uses “membrane catalysis” mechanisms when forming a complex with the voltage-sensing domain of the channel.
# [5] = ref [31]; cited from earlier work
# Text: as §5
# LPNs [6] = conditions: ref [12], [15], [20]; cited from earlier work
# Text: (§6) Given that the mechanisms associated with the change in the local curvature of the lipid bilayer (“toroidal” pore formation, bilayer micellization) underlie the action of the overwhelming majority of water- soluble cationic AMPs, we can assume that many of these molecules will have a destructive effect on LPNs. Thus, nanodiscs are probably not suited as a medium for studying these peptides. It should be noted that there are other classes of channel- and pore-forming biomolecules that can be studied in LPN-based media.
# [7] = ref [12], [15], [20]; cited from earlier work
# Text: as §6
# [8] = CD spectroscopy; ref [18], [21]; cited from earlier work
# [9] = cited from earlier work
# Text: The cationic AMP, Ar2, contains mainly positively charged and hydrophobic residues and has a β-hairpin structure in water, which is stabilized with one disulfide bond (Fig. 1). […] As expected, the β-hairpins of individual peptides within the pore have a transmembrane orientation, so that the ...
# [10] = CD spectroscopy; ref [18], [21]; cited from earlier work; remark: listed apart in the source
# [11] = Mean Kyte-Doolittle hydrophobicity index; conditions: among the three studied peptides
# Text: The problems related to the application of LPNbased membrane mimetic media in structural and biophysical studies of water-soluble MPs have yet to be studied. It should be noted that this is far from being a trivial matter, since LPNs, unlike vesicles, bicelles, and micelles, contain an additional component, MSP, which is an anionic protein (charge of –6). In this paper, the interaction of water-soluble MPs with LPNs was studied using three model cationic β-structured peptides (Fig. 1), which have different physicochemical properties and represent three classes of membrane-active compounds. The antimicrobial peptide arenicin-2 (Ar2, 21 AA, 2772 Da, charge of +6, mean Kyte-Doolittle hydrophobicity index is –0.06, The maximum and minimum values of the Kyte-Doolittle hydrophobicity index are +4.5 and –4.5 for poly-Ile and poly-Arg sequences, respectively.) from coelomocytes of the polychaete lugworm Arenicola marina interacts selectively with membranes containing negatively charged lipid molecules and forms oligomeric pores in them. The VSTx1 toxin (34 AA, 4010 Da, charge of +3, hydrophobicity index is –0.27) from Grammostola spatulata spider venom uses the “membrane catalysis” mechanism to interact with the voltage-sensitive domains of K+-channels localized in the cell membrane, and it lacks pore-forming ability. […]
# LPNs [12] = assay: Opalescence/opacity of LPN solutions on Ar2 addition; format: physicochemical
# Experimental: During that study, an aqueous Ar2 solution was added to nanodisc samples. […] An analysis of the sample supernatants by gel filtration confirmed this assumption. […] A similar process is known as high-density lipoprotein remodeling, which can occur both in vitro and in vivo upon the interaction of lipoprotein particles with lipophilic plasma proteins. Previously, nanodisc fusion had been observed in cell-free protein biosynthesis systems with the cotranslational incorporation of membrane proteins into LPNs containing unsaturated lipids. The spontaneous LPN fusion in vitro proceeds very slowly, but it could be considerably accelerated under denaturing conditions.
# [13] = Langmuir isotherm (eq. 2), 10 mM Tris-Ac, pH 7.0, 40–45 °C
# [14] = maximum ("up to"), Langmuir isotherm
# [15] = partition equilibrium (eq. 1), lipid concentration as non-aqueous phase (150 lipids per nanodisc), 10 mM Tris-Ac, pH 7.0, 40–45 °C, no added salt
# [16] = Superdex-200, 10 mM Tris-HCl, 0.1 M NaCl
substance,measurement,setting,value
VSTx1 (GSECGKFMWKCKNSNDCCKDLVCSSRWKWCVLASPF; not fully specified; ends and bridges not checked),"Kn, affinity to the sites on the nanodisc surface or on a MSP molecule",[1],50000 to 130000 M⁻¹
same,"Kn, affinity constant of the peptide to the binding site on the LPN surface",LPN/POPC/DOPG (3 : 1); [13],0.13 ± 0.02 ×10^6·M^-1
same,"n, number of binding sites on the LPN surface",LPN/POPC/DOPG (3 : 1); [13],34.5 ± 3.9
same,binding to LPNs,"LPN/POPC/DOPG (3 : 1); POPC/DOPG, 3 : 1, 1D 1H-NMR titration, 10 mM Tris-Ac, pH 7.0",effectively binds; also recorded: interacts effectively with LPNs containing anionic lipids
same,lipid molecules per toxin molecule,LPN/POPC/DOPG (3 : 1); at ~ 35 binding sites per nanodisc,~ 4 lipid molecules per toxin molecule
same,number of binding sites with negatively charged lipids added,LPN/POPC/DOPG (3 : 1); [14],~ 35
same,"Kp(LPN, MSP×2), partition coefficient","LPN/POPC/DOPG (3 : 1); partition equilibrium (eq. 1), LPN concentration as non-aqueous phase, 10 mM Tris-Ac, pH 7.0, 40–45 °C, no added salt",2.68 ± 0.24 ×10^6·M^-1
same,"Kp(Lipids), partition coefficient",LPN/POPC/DOPG (3 : 1); [15],17.8 ± 1.6 ×10^3·M^-1
same,"Kp, partition coefficient, vesicles of POPE/POPG (3 : 1)",[2],~ 2 × 10^3 × 10^3 M^-1
same,interaction with MSP,"[3]; MSP without lipids, 1D 1H-NMR titration, 10 mM Tris-Ac, pH 7.0",weakly interacts; also recorded: weak interaction
same,"Kn, affinity constant of the peptide to the binding site","[3]; MSP×2, no lipids, Langmuir isotherm (eq. 2), 10 mM Tris-Ac, pH 7.0, 40–45 °C",0.05 ± 0.02 ×10^6·M^-1
same,"Kp(LPN, MSP×2), partition coefficient","[3]; MSP×2, no lipids, partition equilibrium (eq. 1), titration with 0.7 mM MSP, 10 mM Tris-Ac, pH 7.0, 40–45 °C",0.10 ± 0.01 ×10^6·M^-1
same,VSTx1 molecules bound per MSP molecule,"[3]; in the absence of lipids, each MSP molecule",up to 1.6 VSTx1 molecules
same,nanodisc disruption,LPNs [4]; [16],does not cause their disruption; also recorded: no nanodisc disruption
same,diameter of unbound toxin,"LPNs [4]; Superdex-200, 10 mM Tris-HCl, 0.1 M NaCl, pH 7.4, diameter = 2 RH",~ 2.0 nm
same,"Kn, affinity constant of the peptide to the binding site on the LPN surface",LPN/POPC; [13],0.06 ± 0.01 ×10^6·M^-1
same,"n, number of binding sites on the LPN surface",LPN/POPC; [13],9.6 ± 1.5
same,binding to LPNs,"LPN/POPC; POPC, 1D 1H-NMR titration, 10 mM Tris-Ac, pH 7.0",lower affinity; also recorded: interacts less efficiently
same,toxin molecules bound per nanodisc containing POPC (~ 150 molecules),LPN/POPC; [14],~ 10 toxin molecules
same,"Kp(LPN, MSP×2), partition coefficient","LPN/POPC; partition equilibrium (eq. 1), LPN concentration as non-aqueous phase, 1D 1H-NMR titration, 10 mM Tris-Ac, pH 7.0, 40–45 °C, no added salt",0.39 ± 0.02 ×10^6·M^-1
same,"Kp(Lipids), partition coefficient",LPN/POPC; [15],2.6 ± 0.2 ×10^3·M^-1
same,voltage-dependent activation of K^+ channels,K^+ channels,inhibits
same,affinity for interface of phospholipid membranes containing anionic lipids,[5],considerable affinity
same,interaction with zwitterionic lipid membranes,[5],weakly interacts
same,membrane lytic activity,[5],no membrane lytic activity
antiamoebin I,complex formation with LPNs,LPNs [6],formation of stable complexes
same,upper limit of solubility in water,[7],30 µM
"arenicin-2 (RWCVYAYVRIRGVLVRYRRCW; not fully specified; ends and bridges not checked; UniProt Q5SC59 182-202, looked up) [Ar2, antimicrobial peptide (21 AA) from coelomocytes of the polychaete lugworm Arenicola marina]",interaction with POPC vesicles/liposomes,[8],does not interact
same,bilayer micellization,"[9]; at high concentrations, ref [24]",probably causes bilayer micellization
same,interaction with membranes containing negatively charged lipids,[9]; ref [18],interacts selectively with membranes containing negatively charged lipid molecules and creates in them oligomeric pores
same,binding to DOPG liposomes,[10],binds with high affinity
same,relative hydrophobicity,[11],most hydrophobic among the studied peptides
same,size of large complexes,"LPNs [4]; Ar2/LPN sample supernatants, Superdex-200, pH 7.4, diameter = 2 RH",~ 15 nm
same,nanodisc disruption,LPNs [4]; [16],"causes nanodisc fusion, accompanied by the release of MSP molecules"
same,nanodisc disruption,"LPNs [4]; Superdex-200, 10 mM Tris-HCl, 0.1 M NaCl, listed as arenicin-2",disintegrates LPNs
same,LPN solution turbidity,LPNs [12]; equimolar concentrations (Ar2/LPN = 1 : 1) and higher,opaque
same,LPN solution turbidity,LPNs [12]; small peptide concentrations added,strongly opalescent
